Measured values: patent US20250228784A1, “ANTIFIBROTIC COMPOSITION” (Sunshine Lake Pharma Co., Ltd., priority 2021, published 2025)

Assay: Initial research on stability of the active compound on long-term storage
Assay type: physicochemical
Settings: active compound alone, not formulated

In the case of `CCCCCCN(CCCCCC)c1ccc(-n2c(C)nc(C)cc2=O)cc1F` [compound having formula (I), 3-(4-(dihexylamino)-3-fluorophenyl)-2,6-dimethylpyrimidin-4(3H)-one], the “stability on long-term storage” value is reported as “good stability”.
